Test results from ChEMBL document CHEMBL5465560, “Selectivity Literature for EUbOPEN Chemogenomic Library” (2024).

Key:
[1] = target: Cyclin-dependent kinase 16 (Homo sapiens) (UniProt Q00536); test: Selectivity interaction (KinomeScan (DiscoverX)) EUB0001049a CDK16; details: at 1 µM
[2] = target: T1, Testis-specific serine/threonine-protein kinase 2 (Homo sapiens) (UniProt Q96PF2); test: Selectivity interaction (Kinase panel (Z-LYTE Assay)) EUB0001632a TSSK2; details: at 10 µM
T1 sequence (whole entry): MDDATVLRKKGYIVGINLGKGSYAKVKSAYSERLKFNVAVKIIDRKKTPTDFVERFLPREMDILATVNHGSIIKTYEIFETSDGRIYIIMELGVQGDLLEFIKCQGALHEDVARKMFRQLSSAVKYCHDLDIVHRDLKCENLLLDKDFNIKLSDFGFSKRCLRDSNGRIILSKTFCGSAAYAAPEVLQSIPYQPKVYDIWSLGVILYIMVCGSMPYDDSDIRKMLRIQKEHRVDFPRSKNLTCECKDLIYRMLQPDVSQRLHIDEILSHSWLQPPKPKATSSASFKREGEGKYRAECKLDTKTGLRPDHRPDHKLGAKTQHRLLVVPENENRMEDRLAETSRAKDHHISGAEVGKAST

[3] = target: BMP-2-inducible protein kinase (Homo sapiens) (UniProt Q9NSY1); test: Selectivity interaction (KinomeScan (DiscoverX)) EUB0000595a BMP2K; details: at 10 µM
BMP-2-inducible protein kinase (Homo sapiens), sequence (Q9NSY1 whole entry, looked up): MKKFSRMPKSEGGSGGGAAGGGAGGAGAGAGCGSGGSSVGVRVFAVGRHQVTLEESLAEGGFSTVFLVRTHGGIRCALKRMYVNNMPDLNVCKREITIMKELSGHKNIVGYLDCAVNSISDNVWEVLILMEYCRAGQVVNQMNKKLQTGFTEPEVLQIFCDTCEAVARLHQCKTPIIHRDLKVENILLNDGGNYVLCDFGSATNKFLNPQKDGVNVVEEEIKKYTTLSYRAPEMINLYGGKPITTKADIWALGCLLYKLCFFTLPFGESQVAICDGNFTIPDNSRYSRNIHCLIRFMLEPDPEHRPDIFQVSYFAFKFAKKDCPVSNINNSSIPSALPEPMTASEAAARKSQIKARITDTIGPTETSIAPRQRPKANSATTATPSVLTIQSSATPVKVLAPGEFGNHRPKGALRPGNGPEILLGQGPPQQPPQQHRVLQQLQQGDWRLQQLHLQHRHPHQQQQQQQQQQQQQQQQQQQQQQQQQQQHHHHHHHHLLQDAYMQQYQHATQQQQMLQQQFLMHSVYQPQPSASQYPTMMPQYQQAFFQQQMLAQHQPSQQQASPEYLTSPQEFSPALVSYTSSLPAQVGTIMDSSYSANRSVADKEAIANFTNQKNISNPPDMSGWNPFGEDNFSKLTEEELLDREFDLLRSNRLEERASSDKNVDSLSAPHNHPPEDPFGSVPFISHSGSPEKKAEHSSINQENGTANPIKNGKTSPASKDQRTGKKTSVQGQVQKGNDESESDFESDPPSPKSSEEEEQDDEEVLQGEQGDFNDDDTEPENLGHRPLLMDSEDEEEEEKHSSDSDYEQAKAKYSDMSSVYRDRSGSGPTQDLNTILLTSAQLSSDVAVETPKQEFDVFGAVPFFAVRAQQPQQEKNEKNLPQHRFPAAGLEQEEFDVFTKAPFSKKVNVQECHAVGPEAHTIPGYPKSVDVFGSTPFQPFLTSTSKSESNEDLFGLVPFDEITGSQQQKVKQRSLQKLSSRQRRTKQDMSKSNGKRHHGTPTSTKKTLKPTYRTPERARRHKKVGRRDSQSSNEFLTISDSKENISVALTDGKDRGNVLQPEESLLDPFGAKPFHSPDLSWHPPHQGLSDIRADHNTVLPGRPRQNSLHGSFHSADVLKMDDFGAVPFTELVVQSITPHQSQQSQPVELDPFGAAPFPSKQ

[4] = target: T2, Tyrosine-protein kinase receptor TYRO3 (Homo sapiens) (UniProt Q06418); test: Selectivity interaction (KinomeScan (DiscoverX)) EUB0000655a TYRO3; details: at 10 µM
T2 sequence (whole entry): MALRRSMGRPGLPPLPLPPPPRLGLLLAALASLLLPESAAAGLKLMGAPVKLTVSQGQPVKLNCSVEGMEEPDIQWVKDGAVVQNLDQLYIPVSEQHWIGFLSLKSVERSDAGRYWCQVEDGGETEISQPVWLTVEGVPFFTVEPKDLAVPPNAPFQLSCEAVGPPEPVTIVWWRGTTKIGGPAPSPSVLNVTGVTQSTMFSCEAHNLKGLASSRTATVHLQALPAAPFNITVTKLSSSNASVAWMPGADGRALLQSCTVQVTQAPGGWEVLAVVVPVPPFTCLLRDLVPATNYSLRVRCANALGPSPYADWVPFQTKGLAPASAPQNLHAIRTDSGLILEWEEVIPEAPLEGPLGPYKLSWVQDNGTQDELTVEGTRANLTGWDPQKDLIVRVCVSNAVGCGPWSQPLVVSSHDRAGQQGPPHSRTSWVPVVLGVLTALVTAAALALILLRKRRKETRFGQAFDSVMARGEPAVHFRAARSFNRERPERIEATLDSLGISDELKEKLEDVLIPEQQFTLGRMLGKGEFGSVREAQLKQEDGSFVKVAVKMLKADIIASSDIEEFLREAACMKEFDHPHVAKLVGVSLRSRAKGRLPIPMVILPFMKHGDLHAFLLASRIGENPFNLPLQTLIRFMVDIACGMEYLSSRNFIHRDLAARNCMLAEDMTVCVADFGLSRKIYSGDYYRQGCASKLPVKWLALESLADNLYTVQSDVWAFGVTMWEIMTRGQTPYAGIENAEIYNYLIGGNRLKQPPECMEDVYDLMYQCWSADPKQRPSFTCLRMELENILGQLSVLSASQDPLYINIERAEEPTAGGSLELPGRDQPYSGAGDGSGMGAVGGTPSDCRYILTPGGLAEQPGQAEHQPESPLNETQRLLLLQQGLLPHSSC

[5] = target: Ribosomal protein S6 kinase alpha-6 (Homo sapiens, UniProt Q9UK32); test: Selectivity interaction (KinomeScan (DiscoverX)) EUB0001619a RPS6KA6; details: at 1 µM
Ribosomal protein S6 kinase alpha-6, sequence (Q9UK32 whole entry): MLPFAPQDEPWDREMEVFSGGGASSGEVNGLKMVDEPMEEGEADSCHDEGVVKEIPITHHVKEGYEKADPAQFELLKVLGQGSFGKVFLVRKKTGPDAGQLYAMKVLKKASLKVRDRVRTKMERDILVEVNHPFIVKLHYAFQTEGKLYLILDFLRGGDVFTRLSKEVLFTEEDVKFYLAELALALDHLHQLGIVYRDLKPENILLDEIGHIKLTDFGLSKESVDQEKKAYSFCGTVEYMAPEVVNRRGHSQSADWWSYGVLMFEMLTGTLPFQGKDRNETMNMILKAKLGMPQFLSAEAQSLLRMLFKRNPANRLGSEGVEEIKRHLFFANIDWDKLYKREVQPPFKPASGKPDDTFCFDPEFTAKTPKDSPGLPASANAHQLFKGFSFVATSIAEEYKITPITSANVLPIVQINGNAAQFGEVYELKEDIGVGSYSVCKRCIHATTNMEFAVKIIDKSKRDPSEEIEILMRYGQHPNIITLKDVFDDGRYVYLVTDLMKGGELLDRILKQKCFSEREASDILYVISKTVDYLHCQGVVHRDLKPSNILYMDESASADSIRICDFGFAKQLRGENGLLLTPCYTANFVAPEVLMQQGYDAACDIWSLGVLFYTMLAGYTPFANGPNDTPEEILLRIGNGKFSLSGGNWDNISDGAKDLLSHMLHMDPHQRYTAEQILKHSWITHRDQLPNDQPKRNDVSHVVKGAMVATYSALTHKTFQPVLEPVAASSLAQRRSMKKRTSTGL

[6] = system: Epidermal growth factor receptor (Homo sapiens), P00533 [UNDEFINED MUTATION]; test: Selectivity interaction (KinomeScan (DiscoverX)) EUB0000618a EGFR; details: at 10 µM
Epidermal growth factor receptor (Homo sapiens), P00533 [UNDEFINED MUTATION], sequence (P00533 whole entry, looked up, change not shown): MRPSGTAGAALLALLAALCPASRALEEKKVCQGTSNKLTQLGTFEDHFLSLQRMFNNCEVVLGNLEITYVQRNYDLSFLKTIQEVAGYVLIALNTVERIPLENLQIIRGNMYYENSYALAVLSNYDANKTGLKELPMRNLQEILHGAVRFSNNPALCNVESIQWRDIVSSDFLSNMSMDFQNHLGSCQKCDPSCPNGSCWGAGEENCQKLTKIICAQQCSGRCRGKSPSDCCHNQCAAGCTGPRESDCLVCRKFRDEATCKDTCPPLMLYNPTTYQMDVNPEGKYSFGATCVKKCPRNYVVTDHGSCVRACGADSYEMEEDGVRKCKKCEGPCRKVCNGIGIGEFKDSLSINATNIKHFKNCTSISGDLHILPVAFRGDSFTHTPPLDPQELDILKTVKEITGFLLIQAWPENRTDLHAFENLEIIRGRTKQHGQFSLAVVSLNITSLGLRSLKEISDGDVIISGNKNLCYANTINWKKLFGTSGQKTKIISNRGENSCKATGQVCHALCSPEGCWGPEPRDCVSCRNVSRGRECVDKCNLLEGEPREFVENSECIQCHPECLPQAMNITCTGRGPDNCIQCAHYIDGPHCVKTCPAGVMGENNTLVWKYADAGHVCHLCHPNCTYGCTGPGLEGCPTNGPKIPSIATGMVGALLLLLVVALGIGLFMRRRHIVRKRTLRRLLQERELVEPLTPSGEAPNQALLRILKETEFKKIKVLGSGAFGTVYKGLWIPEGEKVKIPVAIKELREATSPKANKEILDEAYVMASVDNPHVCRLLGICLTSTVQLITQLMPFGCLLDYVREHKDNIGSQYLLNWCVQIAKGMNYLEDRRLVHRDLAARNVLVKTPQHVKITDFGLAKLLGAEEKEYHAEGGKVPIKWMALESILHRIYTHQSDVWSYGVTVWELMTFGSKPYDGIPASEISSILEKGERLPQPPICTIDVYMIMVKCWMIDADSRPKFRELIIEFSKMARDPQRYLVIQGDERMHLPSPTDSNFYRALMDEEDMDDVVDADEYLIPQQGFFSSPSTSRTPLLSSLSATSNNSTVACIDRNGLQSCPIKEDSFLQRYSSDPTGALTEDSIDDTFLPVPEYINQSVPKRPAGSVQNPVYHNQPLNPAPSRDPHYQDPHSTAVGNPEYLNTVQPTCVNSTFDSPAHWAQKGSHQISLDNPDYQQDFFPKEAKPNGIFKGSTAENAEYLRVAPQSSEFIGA

[7] = target: T3, Ephrin type-A receptor 3 (Homo sapiens) (UniProt P29320); test: Selectivity interaction (KinomeScan (DiscoverX)) EUB0000618a EPHA3; details: at 10 µM
T3 sequence (whole entry): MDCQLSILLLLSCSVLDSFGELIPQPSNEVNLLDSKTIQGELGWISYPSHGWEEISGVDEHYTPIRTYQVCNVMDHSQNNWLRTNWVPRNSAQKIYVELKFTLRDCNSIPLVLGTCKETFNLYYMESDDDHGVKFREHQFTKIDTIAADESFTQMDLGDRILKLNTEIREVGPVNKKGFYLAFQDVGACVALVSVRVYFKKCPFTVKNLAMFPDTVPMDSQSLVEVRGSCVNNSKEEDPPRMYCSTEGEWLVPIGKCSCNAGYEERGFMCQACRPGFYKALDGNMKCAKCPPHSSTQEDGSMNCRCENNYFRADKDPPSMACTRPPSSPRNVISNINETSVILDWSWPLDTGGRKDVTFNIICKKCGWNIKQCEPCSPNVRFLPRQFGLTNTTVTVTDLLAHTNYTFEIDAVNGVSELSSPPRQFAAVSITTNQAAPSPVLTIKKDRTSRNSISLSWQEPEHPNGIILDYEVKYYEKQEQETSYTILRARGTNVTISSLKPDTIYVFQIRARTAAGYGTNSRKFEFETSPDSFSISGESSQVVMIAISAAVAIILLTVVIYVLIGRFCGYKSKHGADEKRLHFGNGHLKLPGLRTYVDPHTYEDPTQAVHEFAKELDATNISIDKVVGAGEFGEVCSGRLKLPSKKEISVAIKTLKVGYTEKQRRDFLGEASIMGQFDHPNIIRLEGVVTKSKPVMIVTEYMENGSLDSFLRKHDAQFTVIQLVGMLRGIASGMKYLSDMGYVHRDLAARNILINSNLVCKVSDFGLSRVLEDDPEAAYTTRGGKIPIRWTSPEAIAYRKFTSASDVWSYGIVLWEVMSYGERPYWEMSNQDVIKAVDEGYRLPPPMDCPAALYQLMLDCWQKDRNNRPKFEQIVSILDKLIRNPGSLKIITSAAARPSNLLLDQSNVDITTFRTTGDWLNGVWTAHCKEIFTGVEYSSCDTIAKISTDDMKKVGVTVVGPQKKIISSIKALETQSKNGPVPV

[8] = target: Serine/threonine-protein kinase 25 (Homo sapiens) (UniProt O00506); test: Selectivity interaction (KinomeScan (DiscoverX)) EUB0000607a STK25; details: at 10 µM
Serine/threonine-protein kinase 25 (Homo sapiens), sequence (O00506 whole entry, looked up): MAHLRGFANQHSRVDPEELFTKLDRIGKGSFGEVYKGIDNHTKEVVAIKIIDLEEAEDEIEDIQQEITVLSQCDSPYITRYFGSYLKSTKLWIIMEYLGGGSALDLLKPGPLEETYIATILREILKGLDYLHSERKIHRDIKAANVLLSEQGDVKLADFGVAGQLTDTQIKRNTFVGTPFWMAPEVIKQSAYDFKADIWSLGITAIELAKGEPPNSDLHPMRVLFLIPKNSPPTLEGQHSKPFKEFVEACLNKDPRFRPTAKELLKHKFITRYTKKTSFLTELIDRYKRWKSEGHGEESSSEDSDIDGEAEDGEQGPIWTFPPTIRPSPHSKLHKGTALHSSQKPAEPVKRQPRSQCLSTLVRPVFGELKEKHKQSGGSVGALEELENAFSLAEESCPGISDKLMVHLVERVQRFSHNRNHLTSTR

Cyclin-dependent kinase 16 (Homo sapiens), sequence (Q00536 whole entry): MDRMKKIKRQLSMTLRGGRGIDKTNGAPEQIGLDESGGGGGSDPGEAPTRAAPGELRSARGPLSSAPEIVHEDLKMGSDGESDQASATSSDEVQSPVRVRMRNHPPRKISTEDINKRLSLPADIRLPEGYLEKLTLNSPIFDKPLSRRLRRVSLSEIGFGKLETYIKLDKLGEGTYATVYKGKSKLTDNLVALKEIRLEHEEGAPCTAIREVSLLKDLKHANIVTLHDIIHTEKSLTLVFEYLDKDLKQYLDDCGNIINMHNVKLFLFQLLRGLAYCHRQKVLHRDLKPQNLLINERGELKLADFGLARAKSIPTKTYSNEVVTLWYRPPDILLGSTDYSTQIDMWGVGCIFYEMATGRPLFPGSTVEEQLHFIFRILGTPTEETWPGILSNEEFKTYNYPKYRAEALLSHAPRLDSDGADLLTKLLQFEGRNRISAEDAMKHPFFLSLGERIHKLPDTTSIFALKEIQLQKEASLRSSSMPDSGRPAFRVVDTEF

Question: `COc1cc(Nc2nc(C)cc(-c3cnn4nc(OC)ccc34)n2)cc(C(F)(F)F)c1` was tested. Which % of control [1] did it give?
Answer: 74%

Question: Which % of control [2] does the source give for `Cn1cc(-n2cnc3c(NCc4nc5cc(Cl)c(Cl)cc5[nH]4)nc(N4CCOCC4)nc32)cn1` here?
Answer: -16.5%

Question: `COCC(=O)NC/C=C/c1ccc2ncnc(Nc3ccc(Oc4ccc(C)nc4)c(C)c3)c2c1` [CP-724714] was tested. Which % of control [3] did it give?
Answer: 73%

Question: `CN(C)CCOc1ccc(-c2nc(-c3ccncc3)c(-c3ccc4c(c3)CC/C4=N\O)[nH]2)cc1` was tested. Which % of control [4] did it give?
Answer: 100%

Question: With `N#Cc1cccc(-c2c[nH]c3ncnc(N4CCOCC4)c23)c1` as the compound, how does the % of control [5] read?
Answer: 9.8%

Question: With `O[C@H]1CC[C@H](Nc2ncc3nc(Nc4c(F)cc(F)cc4F)n([C@H]4CCOC4)c3n2)CC1` as the compound, how does the % of control [6] read?
Answer: 9.4%

Question: What about the % of control [7] of the same compound?
Answer: 85%

Question: With `CNC(=O)Nc1ccc(-c2nc(N3CC4CCC(C3)O4)c3cnn(C4CCC5(CC4)OCCO5)c3n2)cc1` as the compound, how does the % of control [8] read?
Answer: 91%
